Experimental data published in patent US10376540B2, “Tungsten (VI) salts used to treat infertility, for stimulating fertility and normal reproduction in a non-diabetic female mammal, and for improving the effectiveness of assisted reproduction techniques” (OXOLIFE, S.L., priority 2014, dated 2019).
Values joined by “and” are separate entries in the source; they are usually repeats but may differ in a detail not shown here. Equal values may be shown once.

Legend:
[1] = test system: HEC1-A endometrial cell line and JEG-3 trophectoderm cell line; experiment: In vitro endometrial embryonic adhesion study (JEG-3 spheroids on HEC-1A monolayer); assay type: cell-based, human; settings: for Absolute adhesion rate / Absolute adhesion rate, Mean: HEC-1A treated 24 hours (sodium tungstate 10 μM); for Absolute adhesion rate: adhesion after 60 minutes; for Embryonic adhesion versus untreated HEC-1A cells (in words): HEC-1A treated 24 hours; for Absolute adhesion rate, Mean: Mean of Exp 1-3, baseline 30%
Source text: An “in vitro” human-human embryonic adhesion model made up the HEC1-A endometrial cell line and the JEG-3 trophectoderm cell line was used to determine the effect of sodium tungstate on endometrial receptivity.
The use of in vitro models, and specifically the model based on the mentioned cell lines (HEC-1A and JEG-3), is considered a standard model for studying endometrial receptivity and particularly the adhesion the trophoblast to the endometrium (Fertility and Sterility 2011; 96, 522-529; Methods in Enzymology 2006; 420:3-18 or FASEB J. 201; 26:3715-3727).
The JEG-3 cell line which simulates the trophectoderm cells of a human embryo are cells that grow in monolayers in laboratory using low adherence plates and are capable of forming spheroids simulating the human embryo; this is one of the most widely used cell lines for conducting in vitro embryonic adhesion assay.
The cell lines were commercially purchased (American Type Culture Collection (ATCC); Rockville, Md., USA) for conducting the endometrial embryonic adhesion experiments. They were thawed and expanded in 4 passes for obtaining sufficient cells to perform all the assays.
The HEC1-A cells were plated in 24-well plates and cultured with McCoy 5A culture medium supplemented with 10% fetal bovine serum and 0.1% antibiotics (fungizone and penicillin), until reaching 90% confluence. After reaching the confluence, there was added to the culture medium sodium tungstate at a final concentration of 10 μM, as well as Withaferin A (as a control, a compound that prevents embryonic adhesion) or culture medium (baseline adhesion data), without any additional component, for 24 hours.
The JEG-3 cells were plated in low adherent plates with Eagle's minimal essential medium (EMEM) culture medium supplemented with 10% fetal bovine serum and 0.1% antibiotics (fungizone and penicillin). Twenty-four hours before the adhesion assay, the JEG-3 trophoblast spheroids were formed from this culture. To that end, JEG-3 cells in the medium described above were suspended in an Erlenmeyer flask under stirring at a concentration of 6×10^5 cells/6 ml. The resulting spheroids were collected for the adhesion assay.
For the adhesion assay, 24 hours after culturing the HEC-1A cells with culture medium adding sodium tungstate, Withaferin A or without adding any treatment, the culture medium was changed with fresh culture medium without treatments under study. The trophectoderm spheroids were added onto the monolayer of HEC-1A cells, placing 6 to 10 spheroids per well. The adhesion of the spheroids was measured after 60 minutes, counting spheroid that was floating in the culture medium as non-adhered spheroid and spheroid that was not floating as adhered spheroid. The examination was conducted with an inverted microscope (Nikon Diaphot 300; Nikon Corp., Tokyo, Japan). The assay was conducted in triplicate.

[2] = test system: IRS2−/− female mice; experiment: Ovulation study: phase of the estrous cycle in vaginal smears (Papanicolau); assay type: in vivo; parameters: key to Phase of the estrous cycle in vaginal smear: A: Anestrus; D: Diestrus; P: Proestrus; E: Estrus; M: Metestrus; settings: for Phase of the estrous cycle in vaginal smear: individual IRS2−/− female mice, dihydrate
Source text: The mouse model used for determining the activity of tungsten (VI) salts for favoring normal reproduction and fertility is an Irs2 gene knock-out mouse, IRS2^−/−[Burks et. al., “IRS-2 pathways integrate female reproduction and energy homeostasis”, Nature, 2000, vol. 407, pp. 377-382]. Irs2 gene deletion translates into a clear sexual dimorphism in relation to fertility and carbohydrate metabolism.
The male mice of this model have insulin resistance and severe hyperglycemia that started at an early age. In contrast, the female mice remain relatively euglycemic at an early age and develop slight insulin resistance which remains until a later age (4-5 months). IRS2^−/− female mice at an early age, about 10 weeks old, show a low follicular development and persistent anovulation, accompanied by the absence of estrous cycle in most mice. The pregnancy rate in IRS2^−/− female mice is 9% compared to the rate of 100% in IRS^wt (IRS-2^−/− wild type) female mice. Given that female mice at these ages remain euglycemic and that they only develop slight insulin resistance, the profound impairment in fertility is not a direct result of anomalies in glucose metabolism.
(§1) Ten IRS2^−/− female mice of ages comprised between 6 and 8 weeks. Six “wild-type” (IRS2^wt) male mice of ages comprised between 6 and 8 weeks. The female and male mice were housed separately in normal conditions, i.e., a 12 h light/darkness cycle and controlled temperature and humidity. The animals were fed at will (also referred to as ad libitum) with a standard feed diet.
(§2) After an acclimatization period, the IRS2^−/− female mice were housed in groups of 4-6 mice/cage. Tungstate salt-free drinking water was administered to the animals during the pre-treatment phase (2 weeks).
(§3) Sodium tungstate was administered in the drinking water (ad libitum) by means of a solution of 2 mg/ml of sodium tungstate dihydrate (marketed by Carlo Erba) in distilled water after the pre-treatment phase (day 0 of treatment) and up to 4 weeks before sacrificing the animals. The daily dose of sodium tungstate ingested by the mice was about 180 mg/kg of body weight.
During the pre-treatment period and during the first 3 weeks of treatment, vaginal smears were performed in 6 randomly chosen female mice on days −8; −5; −2; −1; 7; 8; 14; 15 and 22, to determine the phase of the estrous cycle they were in.
Between […] of saline solution was introduced into the vagina of the mice with a Pasteur pipette. Vaginal exudate was collected with the same pipette and spread on a slide. Once air-dried, it was fixed and stained with the Papanicolau technique.
The Papanicolau technique comprises staining the vaginal smears fixed on the slide in the following manner: • 10 immersions in 50% v/v alcohol; • Immersing in Harris hematoxylin solution for 3 minutes; • Rinsing with running water; • 10 immersions in acid alcohol (1% hydrochloric acid); • Rinsing with running water; • 10 immersions in 95% v/v alcohol; • Immersing in OG-6 solution for 30 seconds; • 10 immersions in 96% v/v alcohol; • Immersing in eosin solution for 1 minute; • 10 immersions in 96% v/v alcohol; • 10 immersions in 86% v/v alcohol; and • 10 immersions in xylol
The preparations were analyzed by trained staff using a coding in a single-blind manner for eliminating observer bias.
The samples were identified in the following phases: diestrus, proestrus, estrus, metestrus, anestrus or non-evaluable. The cyclical nature of the four phases in periods of 4 to 6 days are indicative of a normal estrous cycle, whereas the absence of this cyclical nature and the persistence in anestrus, diestrus or proestrus phases are indicative of the absence of estrous cycle.

[3] = test system: IRS2−/− female mice; experiment: Implantation and pregnancy study after cross-breeding with IRS2wt male mice; assay type: in vivo
Experimental: as §1, §2, §3
After the first three weeks of treatment, the IRS2^−/− female mice were housed in cages in pairs together with a IRS2^wt male mouse continuously.
The mice were observed daily to look for signs of pregnancy or birth.
After 4 weeks, the male mice were exchanged between the cages and they were kept therein for another 4 weeks.
The administration of tungstate was maintained for 8 weeks in which male and female mice were housed together. After these 8 weeks, treatment was withdrawn and the male and female mice were housed together for 4 additional weeks.
After this period, the female mice were sacrificed and biopsy was carried out to look for indications of pregnancy.
After the cross-breeding period of the method of section B, the female mice were sacrificed and biopsies were carried out to look for indications of pregnancy.

[4] = test system: rats with diabetes and insulinopenia induced by streptozotocin; settings: streptozotocin-diabetic females after prolonged treatment (10 weeks), mated with healthy males; non-diabetic 100%; cited from earlier work
[5] = individual treated IRS2−/− female mice, dihydrate

SMILES | Absolute adhesion rate ([1]; Exp 1, baseline 12%) [%] | Absolute adhesion rate ([1]; Exp 2, baseline 48%) [%] | Absolute adhesion rate ([1]; Exp 3, baseline 31%) [%] | Embryonic adhesion versus untreated HEC-1A cells (in words) [1] | Absolute adhesion rate, Mean [1] [%] | Phase of the estrous cycle in vaginal smear ([2]; day 7 of treatment, 2 mg/ml sodium tungstate dihydrate in drinking water (about 180 mg/kg/day)) | Phase of the estrous cycle in vaginal smear ([2]; day 8 of treatment, 2 mg/ml in drinking water) | Phase of the estrous cycle in vaginal smear ([2]; day 14 of treatment, 2 mg/ml in drinking water) | Phase of the estrous cycle in vaginal smear ([2]; day 15 of treatment, 2 mg/ml in drinking water) | Phase of the estrous cycle in vaginal smear ([2]; day 22 of treatment, 2 mg/ml in drinking water) | Analyzed mice with recovery of the estrous cycle ([2]; on the seventh day of treatment, infertile, non-diabetic IRS2−/− female mice) [%] | Pregnancy rate ([3]; IRS2−/− female mice treated with tungstate (untreated 9%)) [%] | Pregnancy ([3]; individual treated IRS2−/− female mice, 2 mg/ml in drinking water, cross-bred with IRS2wt males, dihydrate) | Number of embryos implanted or young born (embryos implanted) [3, 5] | Number of embryos implanted or young born (young born) [3, 5] | Mean of young/implanted embryos per pregnant female mouse ([3]; treated IRS2−/− female mice) | Percentage of births with respect to the number of positive curettages [4] [%]
CC1=C(CO)C(=O)O[C@@H]([C@@H](C)[C@H]2CC[C@H]3[C@@H]4C[C@H]5O[C@]56[C@@H](O)C=CC(=O)[C@]6(C)[C@H]4CC[C@]23C)C1 [Withaferin A, reference compound] | 0 | 0 | 0 | No adhesion whatsoever | 0 |  |  |  |  |  |  |  |  |  |  |  | 
O.O.[Na+].[Na+].[O]=[W](=[O])([O-])[O-] [sodium tungstate, sodium tungstate dihydrate] | 31 | 65 | 35 | higher percentage of embryonic adhesion | 44 | M and E (4×) and E-M | M and E-M (3×) and E (2×) | E and E-M (3×) and D | D and E (2×) and M (2×) and A | D (2×) and A (2×) and M and P | 100 | 80 | YES | 7 embryos (3×) and 6 embryos | 3 young and 8 young (2×) and 1 young | about 5 | 66
